Source: US10889812B2, “Short non-coding protein regulatory RNAs (sprRNAs) and methods of use” (University of Maryland, Baltimore, priority 2014, dated 2021)
Values belong to the compound of their own block, whether it stands above or below them.

Tests used:
[1] = test system: H226; experiment: MTT assay, IC50 of CDDP in NSCLC cell lines; type: cell-based, Human
Method: (§1) Cell viability and cell growth curve assay were determined by MTT assay and trypan blue exclusion assay, respectively as described previously (Kirino, Y. & Mourelatos, Z. Mouse Piwi-interacting RNAs are 2′-O-methylated at their 3′ termini Nat Struct Mol Biol. 14, 347-348 (2007)). BrieflySpecifically, MTT (5 mg/ml) was added into cells and incubated at culture condition for 3 hours, removed the medium carefully and dissolved formazan in DMSO, assay was used to assess the surviving cells and OD values were measured using Microplate Reader Manager (Bio Rad) at wavelengths of 570/690 nm. For trypan blue exclusion assay, cells were washed in PBS for three times, and dyed in 0.4% tyrpan blue solution. Unstained viable cells were counted in hemocytometer chamber under microscope. Each experiment was performed three times independently.
(§2) To determine if piRNA-Ls play a role in chemo-sensitivity, we first selected 11 piRNA-Ls differentially expressed between NSCLC and HBE cells (Mei Y, Wang Y, Kumari P, et al. A piRNA-like small RNA interacts with and modulates p-ERM proteins in human somatic cells. Nat Commun 6, 7316. doi: 10.1038/ncomms8316 (2015)) and analyzed the relationship between the expression levels and the sensitivities to chemotherapeutic agents commonly used clinically for patients with NSCLC. We established doses of 50% inhibitory concentration (IC50) for CDDP, gemcitabine, and docetaxel in 4 SCC and 4 ADC cell lines based on 3-(4,5-dimethylthiazol-2-yl)-2,5-diphenyltetrazolium bromide (MTT) assay (Table 4). We then measured expression levels of the 11 selected piRNA-Ls using real-time RT-PCR before and 24 h after treatment with both IC50 (H) and IC25 (L) doses for each of the agents. […] Impact of gemcitabine and docetaxel in piR-L-138 expression was also determined in these NSCLC cell lines (FIG. 19). As CDDP is the backbone agent to treat patients with NSCLC, we selected CDDP as the representative agent to further determine the role of piR-L-138 in SCC cells' response to chemotherapy.

[2] = test system: H1944; experiment: MTT assay, IC50 of CDDP in NSCLC cell lines; type: cell-based, Human
Method: as §1, §2

[3] = test system: SKMES-1; experiment: MTT assay, IC50 of CDDP in NSCLC cell lines; type: cell-based, Human; details: SKMES-1, MTT assay
Method: as §1, §2

[4] = test system: H522; experiment: MTT assay, IC50 of CDDP in NSCLC cell lines; type: cell-based, Human
Method: as §1, §2

[5] = test system: H157; experiment: MTT assay, IC50 of CDDP in NSCLC cell lines; type: cell-based, Human
Method: as §1, §2

[6] = test system: H596; experiment: MTT assay, IC50 of CDDP in NSCLC cell lines; type: cell-based, Human
Method: as §1, §2

[7] = test system: H1437; experiment: MTT assay, IC50 of CDDP in NSCLC cell lines; type: cell-based, Human
Method: as §1, §2

[8] = test system: H1792; experiment: MTT assay, IC50 of CDDP in NSCLC cell lines; type: cell-based, Human
Method: as §1, §2

[9] = test system: piR-L-138; experiment: piR-L-138 expression by real-time RT-PCR after chemotherapeutic agent, SCC cell lines; type: cell-based, human; details: all SCC cell lines, 24 h after treatment
Description: as §2

[10] = test system: piR-L-138; experiment: piR-L-138 expression by real-time RT-PCR after chemotherapeutic agent, ADC cell lines; type: cell-based, human; details: 24 h after treatment
Description: as §2

[11] = test system: cleaved PARP; experiment: Western blot of cleaved PARP in CDDP treated SCC cells; type: cell-based, human; details: pre-treated SCC cells plus CDDP, vs Scr
Description: (§3) Primary antibodies used were: anti-Moesin (1:1,000, Clone Q480, Catalog No. 3150, Cell Signaling), anti-p-ERM (Clone 41A3, Catalog No. 3149, Cell Signaling), anti-Moesin (Clone 38/Moesin, Catalog No. 610401, BD Transduction Laboratories), anti-p-Moesin (Thr558, Catalog No. 12895, Sanra Cruz), anti-β-actin (1:5,000, Catalog No. A228, Sigma-Aldrich), anti-EBP50 (1:100, Clone 6/EBP50, Catalog No. 61160, BD Transduction Laboratories), anti-F-actin (1:100, Clone NH3, Catalog No. MA1-80729, Thermor Fisher), anti-p-Wee 1 (Se53, 1:1000, Catalog No. sc-130223, Sanra Cruz), anti-Wee 1 (C-20, 1:1000, Catalog No. sc-325, Sanra Cruz), anti-p-Cdc2 (Tyr15, 1:1000, Catalog No. 9111, Cell Signaling), anti-p-Cdk (Thr14/Tyr15-R, 1:1000, Catalog No. sc-28435-R, Sanra Cruz), anti-Cdc2 p34 (H-297, 1:1000, Catalog No. sc-747, Sanra Cruz), anti-p-Cdc25C (Ser198, 1:1000, Catalog No. 9529, Cell Signaling), anti-CDK2 (78B2, 1:1000, Catalog No. 2546, Cell Signaling), anti-p-Histone H2AX (Ser139, 20E3, :1000, Catalog No. 9718, Cell Signaling), and anti-GFP (N-terminal, 1:4000, Catalog No. G1544, Sigma). Secondary antibodies used were: Goat anti-Mouse (1:2,500, Catalog No. 31160, Pierce), and Goat anti-Rabbit (1:2,500, Catalog No. 31460, Pierce). Cells were lysed in RIPA buffer (Sigma) on ice after washed in PBS twice, centrifuge at 160,000×g for 10 min at 4° C. […]

[12] = test system: H157 tumor xenograft; experiment: H157 tumor xenograft model, intra-tumor injection of Ant-138 with CDDP; type: in vivo, mice
Description: To further validate the interaction between piR-L-138 and MDM2 at the individual cell level, we performed fluorescence in situ hybridization (FISH) assay using a digoxin (DIG)-labelled RNA probe complimentary to piR-L-138 and an anti-MDM2 antibody. We first tested the probes in HBE4 cells which express high levels of piR-L-138 to ensure the sensitivity and specificity of the piR-L-138 probe and MDM2 antibody (FIG. 16c). […] This is consistent with the observed up-regulation of piR-L-138 in SCC cells upon CDDP treatment and the interaction between piR-L-138 and MDM2. Next, we used H157 tumor xenograft model to determine if targeting piR-L-138 can enhance CDDP-mediated tumor cell apoptosis in SCC in vivo. In this proof of principle experiment, we used intra-tumor injection of Ant-138 (SEQ ID NO:556) which was formulated with MaxSuppr in vivo RNALancerll as described previously (Wiggins J F, et al. Development of a Lung Cancer Therapeutic Based on the Tumor Suppressor MicroRNA-34. Cancer Res. 70, 5923-30(2010)) due to the requirement of very large quantity of formulated reagents needed for systemic delivery. […] Since we were using local injection with sub-optimal dose, such modest anti-tumor activity was expected. We were focusing on determining if Ant-138 increased apoptosis at the sites of injection by analyzing tumor tissue sections for cleaved caspase 3 as an indicator of apoptosis and Ant-138.

[13] = test system: SCC cells; experiment: Annexin V staining assay, CDDP-induced apoptosis; type: cell-based, human; details: pre-treated SCC cells, vs Scr pre-treated
Description: (§4) To determine if the increased piR-L-138 plays a functional role in CDDP treated SCC cells, we used DNA antisense oligos of piR-L-138 (Ant-138) to block piR-L-138 in H157 and SKMES-1 cells. Six hours after Ant-138 treatment, we treated the cells with CDDP (IC25 dose).

[14] = test system: MDM2; experiment: Western blot of MDM2 cleavage and phosphorylation in SCC cells; type: cell-based, human; details: SCC cells pre-treated, upon CDDP treatment
Description: as §3, with “C. Protein in supernatant was qualified using BCA™ protein assay kit (Thermo Scitific) and denatured in SDS loading buffer in boiling water, run 10% SDS-PAGE gel and transferred to nitrocellulose membrane (Thermo Scitific).” for “C.”
Next, we wanted to explore potential mechanism of piR-L-138-mediated apoptosis inhibition in CDDP treated lung SCC cells. We first analyzed cleaved PARP, a protein marker indicative of apoptosis, and found it was increased in the SCC cells pre-treated with Ant-138 compared with Scr pre-treated cells (FIG. 15d). As both of the SCC cell lines harbor p53 mutations, we analyzed mouse double minute 2 homolog (MDM2) which has been implicated in apoptosis including p53-independent pathway (Bohlman S, Manfredi J J. p53-independent effects of Mdm2. Subcell Biochem. 85,235-46 (2014); Bouska A, Eischen C M. Mdm2 affects genome stability independent of p53. Cancer Res. 69, 1697-701 (2009); Zhang, Z., Li, M., Wang, H., Agrawal, S., and Zhang, R. Antisense therapy targeting MDM2 oncogene in prostate cancer: Effects on proliferation, apoptosis, multiple gene expression, and chemotherapy. Proc. Natl. Acad. Sci. 100, 11636-11641 (2003); Zhang Z, Wang H, Li M, Agrawal S, Chen X, Zhang R. MDM2 Is a Negative Regulator of p21WAF1/CIP1, Independent of p53. […]

[15] = test system: H157 and SKMES-1 cells; experiment: Flow cytometry, sub-G1 phase after CDDP; type: cell-based, human; details: Ant-138 then CDDP (IC25 dose) six hours later, vs Scr
Method: Cell cycle distribution was analyzed by Flow Cytometry (Becton-Dickinson). Cells were synchronized in growth factor-free Keratinocyte-SFM with 2 mM Thymidine (Catalog No. T1895, Sigma-Aldrich) for 24 hrs. Transfection is performed using Lipofectamine™ RNAiMAX (Invitrogen) according to its manual, and the final concentration of annealed oligo RNAs is 400 nM. Four hour after transfection, culture medium was replaced by complete Keratinocyte-SFM supplemented with L-Glutamine, prequalified human recombinant EGF 1-53 and BPE. Cells were harvested at different time points, washed in phosphate-buffer saline (PBS), fixed with ice-cold 70% ethanol, and strained in PI/RNase solution (BD Pharmigen). The samples were analyzed on a FACScan flow cytometer in combination with BD lysis software (Becton-Dickinson).
as §4

[16] = test system: H157 and SKMES-1 cells; experiment: MTT assay, cell killing by CDDP after Ant-138; type: cell-based, human; details: Ant-138 then CDDP (IC25 dose) six hours later, vs Scr pre-treated
Method: as §1, §4

[17] = test system: lung SCC cell lines; experiment: MTT cell viability after DNA oligo blocking 5 sprRNAs; type: cell-based, human; details: twenty-four hours after treatment, 4 lung SCC cell lines
Description: (§5) To test the potential impact of the candidate sprRNAs identified by phosphor-protein binding in the phosphorylation status of the proteins, we selected a panel of 5 sprRNAs with sizes ranging from 25-50 nt but sharing a common 25 nt sequence and used DNA oligo complementary to the common sequence (5′-[…]-3′) (SEQ ID NO:489) to block these sprRNAs.

[18] = test system: phosphor-proteins; experiment: Western blots of phosphorylated proteins (p-Tyrosine, p-Theronin/Serine); type: cell-based, human; details: lung SCC cells treated with the DNA oligo
Description: as §5

IC50 [1]: 40 µM
IC50 [2]: 100 µM
IC50 [3]: 10 µM
IC50 [4]: 45 µM
IC50 [5]: 80 µM
IC50 [6]: 30 µM
IC50 [7]: 50 µM
IC50 [8]: 50 µM
Compound: [NH2][Pt]([NH2])([Cl])[Cl] [CDDP, cisplatin]
piR-L-138 levels [9]: consistent and substantial increase of piR-L-138 levels
piR-L-138 expression [10]: no or much smaller increase of piR-L-138 expression

Compound: Ant-138: DNA sequence that is antisense to piR-L-138, SEQ ID NO:556 (antisense AGGTCTCAGAGTAATTCTAGAGCTAAAGT; listed as DNA, chemistry not given here)
cleaved PARP [11]: increased
caspase 3 positive tumor cells by Ant-138 level (immunofluorescence) ([12]; tumors treated with CDDP and Ant-138): significantly concentrated caspase 3 positive tumor cells in areas with high levels of Ant-138
tumor size ([12]; with CDDP, intra-tumor injection, vs untreated and CDDP plus Scr): smaller but the difference was only border line statistically
expression of cleaved caspase 3 in tumors ([12]; with CDDP, vs CDDP and Scr control): higher expression of cleaved caspase 3
sensitivity to CDDP-induced apoptosis (annexin V) [13]: more sensitive to CDDP-induced apoptosis
MDM2 cleavage [14]: substantially reduced MDM2 cleavage
serine-166 phosphorylation in the cleaved MDM2 [14]: increase of serine-166 phosphorylation in the cleaved MDM2
proportion of the sub-G1 phase [15]: substantially increased proportion of the sub-G1 phase
cell killing (MTT) [16]: significantly increased cell killing

Compound: DNA oligo complementary to the common sequence: DNA sequence antisense to SEQ ID NO:489 (AntiC, SEQ ID NO:558), blocks 5 sprRNAs sharing a common 25 nt sequence (antisense CGAACCCGGGCCGCGGCGGTGAGA; DNA, backbone and methylation of C not given here)
cell viability (MTT) [17]: significant growth inhibition
levels of phosphorylated proteins [18]: changes of levels in certain phosphor-proteins
